Assay results: patent publication US6777190B1, “Crosstalk inhibitors and their uses” (Biosite, Inc., priority 1991, dated 2004)

Tested on: monoclonal antibodies to morphine (morp Ab)
Assay: Crosstalk inhibitor test: colloidal gold ligand analogue conjugate binding at the morp Ab zone of a nylon membrane (color density DE*)
Conditions: 5 μl (1.1 μmol) inhibitor, Table 3 #6 vs #1

O=C(O)CCCCCNC(=O)C1CCC(CN2C(=O)CC(SCCC(=O)O)C2=O)CC1 (stereo not shown) [CCM-MPA]
decrease of the morphine response: about 30%
